Results published in patent US20190375708A1 (VenatoRx Pharmaceuticals, Inc., priority 2018, published 2019).

Key:
[1] = In vitro cytotoxicity assay (MTT cell viability) in HepG2 cells; type: cell-based, human; settings: human
Summary of the method: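 Parental HepG2 cells in EMEM + 10% FBS were exposed to compounds (8 half-log dilutions, 30 μM to 1.0 nM) for 7 days at 37 °C, 5% CO2. MTT was then added for 3-4 h, formazan dissolved in DMSO and absorbance read at 492 nm; CC50 came from 4-parameter fits against vehicle controls.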

[2] = test system: HBV replication in HepAD38 cells; assay: Anti-HBV replication assay in HepAD38 cells (QPCR of extracellular HBV DNA); type: cell-based, HBV (genotype D, serotype ayw); settings: Hepatitis B virus, 168 h, 7 days incubation, extracellular HBV DNA by QPCR, read-out: Anti-HBV EC50
Summary of the method: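 Tet-off HepAD38, 7-day compound exposure ([…], 1 log10 steps, DMSO vehicle), 37 °C. Extracellular HBV DNA by QPCR, copies/mL via standard curve, % inhibition vs vehicle, EC50 by 4-parameter regression. Entecavir as positive control.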

SMILES | CC50 at 7 days [1] [µM] | EC50 [2] [µM]
Cc1csc(NC(=O)C(=O)c2c(C)c(C(=O)Nc3ccc(F)c(C)c3)c(C)n2C)n1 [Example 211, N-(4-fluoro-3-methylphenyl)-1,2,4-trimethyl-5-(2-((4-methylthiazol-2-yl)amino)-2-oxoacetyl)-1H-pyrrole-3-carboxamide] | > 30 | < 0.05
Cc1noc(C(NC(=O)C(=O)c2cc(C(=O)Nc3ccc(F)c(C)c3)c3n2CCCC3)C(C)C)n1 (stereo not drawn) [Example 394, N-(4-fluoro-3-methylphenyl)-3-(2-((2-methyl-1-(3-methyl-1,2,4-oxadiazol-5-yl)propyl)amino)-2-oxoacetyl)-5,6,7,8-tetrahydroindolizine-1-carboxamide] | > 30 | 0.05 to 0.499
Cc1cc(NC(=O)c2c(C)c(C(=O)C(=O)NC3(C)CCOCC3)n(C)c2C)ccc1F [Example 277, N-(4-fluoro-3-methylphenyl)-1,2,4-trimethyl-5-(2-((4-methyltetrahydro-2H-pyran-4-yl)amino)-2-oxoacetyl)-1H-pyrrole-3-carboxamide] | > 30 | < 0.05
Cc1cc(NC(=O)c2c(C)c(C(=O)C(=O)NC(C)(C)CN3CCOCC3)n(C)c2C)cnc1F [Example 351, N-(6-fluoro-5-methylpyridin-3-yl)-1,2,4-trimethyl-5-(2-((2-methyl-1-morpholiinopropan-2-yl)amino)-2-oxoacetyl)-1H-pyrrole-3-carboxamide] | > 30 | 0.05 to 0.499
Cc1cc(NC(=O)c2c(C)c(C(=O)C(=O)N[C@H]3CC[C@@](O)(C(F)(F)F)CC3)n(C)c2C)cnc1F [Example 205, N-(6-fluoro-5-methylpyridin-3-yl)-5-(2-(((1r,4r)-4-hydroxy-4-(trifluoromethyl)cyclohexyl)amino)-2-oxoacetyl)-1,2,4-trimethyl-1H-pyrrole-3-carboxamide] | > 30 | < 0.05
Cc1cc(NC(=O)c2cc(C(=O)C(=O)NCC(C)(C)O)n3c2CCCC3)ccc1F [Example 419, N-(4-fluoro-3-methylphenyl)-3-(2-((2-hydroxy-2-methylpropyl)amino)-2-oxoacetyl)-5,6,7,8-tetrahydroindolizine-1-carboxamide] | > 30 | > 1
Cc1c(C(=O)Nc2cccc(Cl)c2)c(C)n(C)c1C(=O)C(=O)NC(C)(C)CN1CCOCC1 [Example 601, N-(3-chlorophenyl)-1,2,4-trimethyl-5-(2-((2-methyl-1-morpholinopropan-2-yl)amino)-2-oxoacetyl)-1H-pyrrole-3-carboxamide] | > 30 | < 0.05
Cc1cc(NC(=O)c2c(C)c(C(=O)C(=O)N[C@@H](C)CCO)n(C)c2C)ccc1F [Example 142, (S)-N-(4-fluoro-3-methylphenyl)-5-(2-((4-hydroxybutan-2-yl)amino)-2-oxoacetyl)-1,2,4-trimethyl-1H-pyrrole-3-carboxamide] | > 30 | < 0.05
Cc1cc(NC(=O)c2c(C)c(C(=O)C(=O)N[C@@H]3CCCC[C@H]3O)n(C)c2C)ccc1F [Example 136, N-(4-fluoro-3-methylphenyl)-5-(2-(((1R,2R)-2-hydroxycyclohexyl)amino)-2-oxoacetyl)-1,2,4-trimethyl-1H-pyrrole-3-carboxamide] | > 30 | < 0.05
Cc1c(C(=O)Nc2ccc(F)c(F)c2)c(C)n(C)c1C(=O)C(=O)NC1(C(N)=O)CCCC1 [Example 147, 5-(2-((1-carbamoylcyclopentyl)amino)-2-oxoacetyl)-N-(3,4-difluorophenyl)-1,2,4-trimethyl-1H-pyrrole-3-carboxamide] | > 30 | < 0.05
Cc1c(C(=O)Nc2ccc(F)c(Cl)c2)c2n(c1C(=O)C(=O)NC1(CO)CC(F)(F)C1)CCCC2 [Example 465, N-(3-chloro-4-fluorophenyl)-3-(2-((3,3-difluoro-1-(hydroxymethyl)cyclobutyl)amino)-2-oxoacetyl)-2-methyl-5,,6,7,8-tetrahydroindolizine-1-carboxamide] | 5 to 30 | < 0.05
Cc1cc(NC(=O)c2c(Cl)c(C(=O)C(=O)NC3(CO)CC(F)(F)C3)n(C)c2C)ccc1F [Example 366, 4-chloro-5-(2-((3,3-difluoro-1-(hydroxymethyl)cyclobutyl)amino)-2-oxoacetyl)-N-(4-fluoro-3-methylphenyl)-1,2-dimethyl-1H-pyrrole-3-carboxamide] | > 30 | < 0.05
Cc1c(C(=O)Nc2cccc(Cl)c2)c(C)n(C)c1C(=O)C(=O)N[C@H]1CC[C@@H](O)CC1 [Example 602, N-(3-chlorophenyl)-5-(2-(((1s,4s)-4-hydroxycyclohexyl)amino)-2-oxoacetyl)-1,2,4-trimethyl-1H-pyrrole-3-carboxamide] | > 30 | < 0.05
COc1cc(NC(=O)C(=O)c2c(C)c(C(=O)Nc3ccc(F)c(C)c3)c(C)n2C)ccc1B(O)O [Example 248, (4-(2-(4-((4-fluoro-3-methylphenyl)carbamoyl)-1,3,5-trimethyl-1H-pyrrol-2-yl)-2-oxoacetamido)-2-methoxyphenyl)boronic acid] | 5 to 30 | 0.05 to 0.499
Cc1cc(NC(=O)c2c(C)c(C(=O)C(=O)N[C@H]3C4CC5CC3C[C@](O)(C5)C4)n(C)c2C)cnc1F [Example 122, N-(6-fluoro-5-methylpyridin-3-yl)-5-(2-(((1R,2s,3S,5s,7s)-5-hydroxyadamantan-2-yl)amino)-2-oxoacetyl)-1,2,4-trimethyl-1H-pyrrole-3-carboxamide] | > 30 | < 0.05
Cc1c(C(=O)Nc2cc(F)c(F)c(F)c2)c(C)n(C)c1C(=O)C(=O)Nc1cccnc1 [Example 320, 1,2,4-trimethyl-5-(2-oxo-2-(pyridin-3-ylamino)acetyl)-N-(3,4,5-trifluorophenyl)-1H-pyrrole-3-carboxamide] | > 30 | < 0.05
Cc1cc(NC(=O)c2c(C)c(C(=O)C(=O)NC3CCN(c4ccncc4)CC3)n(C)c2C)ccc1F [Example 662, N-(4-fluoro-3-methylphenyl)-1,2,4-trimethyl-5-(2-oxo-2-((1-(pyridin-4-yl)piperidin-4-yl)amino)acetyl)-1H-pyrrole-3-carboxamide] | > 30 | < 0.05
Cc1cc(NC(=O)c2c(C)c(C(=O)C(=O)NCCc3ccsc3)n(C)c2C)ccc1F [Example 646, N-(4-fluoro-3-methylphenyl)-1,2,4-trimethyl-5-(2-oxo-2-((2-(thiophen-3-yl)ethyl)amino)acetyl)-1H-pyrrole-3-carboxamide] | 5 to 30 | < 0.05
Cc1c(C(=O)NC2(C)CCCC2)c2n(c1C(=O)C(=O)NC(C)(C)CO)CCCC2 [Example 753, 3-(2-((1-hydroxy-2-methylpropan-2-yl)amino)-2-oxoacetyl)-2-methyl-N-(1-methylcyclopentyl)-5,6,7,8-tetrahydroindolizine-1-carboamide] | > 30 | 0.05 to 0.499
Cc1cc(NC(=O)c2c(C)c(C(=O)C(=O)NC3(CO)CCCC3)n(C)c2C)ccc1F [Example 359, N-(4-fluoro-3-methylphenyl)-5-(2-((1-(hydroxymethyl)cyclopentyl)amino)-2-oxoacetyl)-1,2,4-trimethyl-1H-pyrrole-3-carboxamide] | > 30 | < 0.05
Cc1cc(NC(=O)c2c(C)c(C(=O)C(=O)NC3CC4(CC(O)C4)C3)n(C)c2C)ccc1F (stereo not drawn) [Example 598, N-(4-fluoro-3-methylphenyl)-5-(2-((6-hydroxyspiro[3.3]heptan-2-yl)amino)-2-oxoacetyl)-1,2,4-trimethyl-1H-pyrrole-3-carboxamide] | > 30 | < 0.05
Cc1cc(NC(=O)c2c(C)c(C(=O)C(=O)N[C@H](C(N)=O)C(C)(C)C)n(C)c2C)ccc1F [Example 39, (S)-5-(2-((1-amino-3,3-dimethyl-1-oxobutan-2-yl)amino)-2-oxoacetyl)-N-(4-fluoro-3-methylphenyl)-1,2,4-trimethyl-1H-pyrrole-3-carboxamide] | > 30 | 0.5 to 1
Cc1nnc(CCNC(=O)C(=O)c2c(C)c(C(=O)Nc3ccc(F)c(C)c3)c(C)n2C)s1 [Example 356] | > 30 | < 0.05
Cc1c(C(=O)Nc2ccc(F)c(Cl)c2)c(C)n(C)c1C(=O)C(=O)NC(C)(C)CO [Example 189, N-(3-chloro-4-fluorophenyl)-5-(2-((1-hydroxy-2-methylpropan-2-yl)amino)-2-oxoacetyl)-1,2,4-trimethyl-1H-pyrrole-3-carboxamide] | > 30 | < 0.05
Cc1cc(NC(=O)c2c(C)c(C(=O)C(=O)NC(C)(C)C(F)(F)F)n(CCF)c2C)cnc1F [Example 224, N-(6-ffluoro-5-methylpyridin-3-yl)-1-(2-fluoroethyl)-2,4-dimethyl-5-(2-oxo-2-((1,1,1-trifluoro-2-methylpropan-2-yl)amino)acetyl)-1H-pyrrole-3-carboxamide] | > 30 | 0.05 to 0.499
Cc1cc(NC(=O)c2cc(C(=O)C(=O)NC(C)(C)C)n3c2CCCC3)cc(F)c1F [Example 397, 3-(2-(tert-butylamino)-2-oxoacetyl)-N-(3,4-difluoro-5-metthylphenyl)-5,6,7,8-tetrahydroindolizine-1-carboxamide] | 5 to 30 | 0.05 to 0.499
Cc1cc(NC(=O)c2c(C)c(C(=O)C(=O)N[C@@H]3CC[C@@H](O)C3)n(C)c2C)cnc1F [Example 176, N-(6-fluoro-5-methylpyridin-3-yl)-5-(2-(((1R,3R)-3-hydroxycyclopentyl)amino)-2-oxoacetyl)-1,2,4-trimethyl-1H-pyrrole-3-carboxamide] | > 30 | 0.05 to 0.499
